Measurements: US20240116845A1, “INDENE COMPOUNDS, PHARMACEUTICAL COMPOSITIONS THEREOF, AND THEIR THERAPEUTIC APPLICATIONS” (NucMito Pharmaceuticals Co., Ltd., priority 2021, published 2024)

Legend:
Type in all cases: cell-based
[1] = system: alpha-smooth muscle actin (α-SMA); assay: Inhibition of TGF-β induced expression of alpha-smooth muscle actin in CFSC cells (western blot); conditions: compound at 10 μM, TGF-β (10 ng/mL), 24 hours
Method: The ability of a compound to inhibit the TGF-β induced expression of alpha-smooth muscle actin (α-SMA) was evaluated in CCl4-treated fat storing (CFSC) cells. α-SMA is considered as a reliable marker of hepatic stellate cell activation and a key biomarker for liver fibrosis.
CFSC cells maintained in a DMEM medium supplemented with 10% fetal bovine serum were seeded to 12-well culture dishes and grown to a confluence of 60-70% the next day. Culture was changed to a serum-free DMEM medium and the cells were treated with the compound at 10 μM in the presence of TGF-β (10 ng/mL). The cells were incubated for another 24 hours. All culture was maintained at 37° C. in 5% carbon dioxide.
An NP-40 lysate solution (50 mM Tris, pH 7.4, 150 mM NaCl, 1% NP-40) with EDTA free cocktail added was used to lyse the cells on ice for 30 min. The lysate was collected and centrifuged at 4° C. for 10 min at 12,000 rpm. The pellet was discarded and the supernatant was transferred to a new tube. The cell lysate was loaded with 5× loading buffer and boiled for 10 min, resolved by 10% SDS-polyacrylamide gel electrophoresis (SDS-PAGE), and transferred to a PVDF membrane. The membrane was blocked with 5% skim milk in Tris-buffered saline and TWEEN® 20 (TBST; 10 mM Tris-HCl, pH 8.0, 150 mM NaCl, 0.1% TWEEN® 20) for 1 h at room temperature and then incubated with α-SMA and β-actin antibodies overnight at 4° C. After washing twice with TBST, the membrane was probed with a […] anti-immunoglobulin (1:5000 dilution) for 1 h at room temperature. After two subsequent rinses in TBST, immunoreactive products were reacted with ECL and visualized by a UVP CHEMSTUDIO™ imaging system. The western blotting bands are quantitated using an ImageJ software. The percentage of inhibition was obtained by calculating the percentage decrease in the band intensity compared to the one treated with TGF-β only.
The results are summarized in Table 1, where A represents a value no less than 80/% inhibition, B represents a value less than 80% but no less than 50% inhibition, C represents a value less than 50% but no less than 30% inhibition, and D represents a value less than 30% inhibition with a compound at 10 μM.

[2] = system: A549 (lung adenocarcinoma); assay: Antiproliferative activity, CCK-8 cell viability; conditions: Homo sapiens, 72 h, read-out: Inhibition of Cancerous Cells, A549
Method: (§1) The antiproliferative activity of a compound was determined in the following cell lines: MDA-MB-231 (breast cancer), HepG2 (liver cancer), SW480 (colon cancer), B16F10 (malignant melanoma), A431 (epidermoid carcinoma), A549 (lung adenocarcinoma), and HeLa (cervical cancer). MDA-MB-231, HepG2, SW480, B16F10, and A431 cells were cultured in Dulbecco's modified Eagle's medium (DMEM) containing 10% fetal bovine serum (FBS). HeLa cells were cultured in MEM/EBSS (MEM) containing 10% FBS. A549 cells were maintained in Kaighn's modification of Ham's F-12 medium containing 10% FBS. The Cell Counting Kit-8 (CCK-8) assay was used to determine the cell viability of cells following treatment with the compound.
(§2) Briefly, cells were seeded in a 96-well plate at a density of 2,000-5,000 cells/well. Following attachment, the cells were treated with the compound in media at a compound concentration of 3.3 μM, 10 μM, or 30 μM, or DMSO as a control. After the cells were incubated at 37° C. for 72 h, the CCK-8 solution (10 μL) was added to each well. After incubation at 37° C. for 4 h, the absorbance value of each well was determined using a multi-well plate reader at 450 nm. The percentage of cell viability was determined with respect to the DMSO-treated cells. The results were summarized in Table 2-4 below, wherein A represents no less than 50% inhibition of cell growth; B represents less than 50% but no less than 30% inhibition of cell growth; C represents less than 30% inhibition of cell growth.

[3] = system: B16F10 (malignant melanoma); assay: Antiproliferative activity, CCK-8 cell viability; conditions: Mus musculus, B16-F10, 72 h, read-out: Inhibition of Cancerous Cells, B16F10
Method: as §1, §2

[4] = system: MDA-MB-231 (breast cancer); assay: Antiproliferative activity, CCK-8 cell viability; conditions: Homo sapiens, 72 h, read-out: Inhibition of Cancerous Cells, MDA-MB-231
Method: as §1, §2

HepG2 (liver cancer) = assay: Antiproliferative activity, CCK-8 cell viability; conditions: Homo sapiens, 72 h, read-out: Inhibition of Cancerous Cells, HepG2
Method: as §1, §2

SW480 (colon cancer) = assay: Antiproliferative activity, CCK-8 cell viability; conditions: Homo sapiens, 72 h, read-out: Inhibition of Cancerous Cells, SW480
Method: as §1, §2

HeLa (cervical cancer) = assay: Antiproliferative activity, CCK-8 cell viability; conditions: Homo sapiens, 72 h, read-out: Inhibition of Cancerous Cells, HELA
Method: as §1, §2

[5] = compound concentration of 3.3 μM
[6] = compound concentration of 10 μM
[7] = compound concentration of 30 μM

CC(C)CC1=C(CC(=O)O)c2cc(F)ccc2/C1=C\c1ccc(Oc2ccc(F)cc2)cc1 [Compound D8, 2-[(1Z)-5-Fluoro-1-{[4-(4-fluorophenoxy)phenyl]methylidene}-2-(2-methyl-propyl)-1H-inden-3-yl]acetic acid]
inhibition at 10 µM [1]: ≥ 80%

COc1ccc2c(c1)C(CC(=O)O)=C(C)/C2=C/c1ccc(Oc2ccc(F)cc2)cc1 [Compound D10, 2-[(1Z)-5-Methoxy-2-methyl-1-({4-[4-fluorophenoxy]phenyl}methylidene)-1H-inden-3-yl]acetic acid]
inhibition at 10 µM [1]: ≥ 80%

COc1ccc2c(c1)C(CC(=O)O)=C(C)/C2=C/c1ccc(Oc2ccccc2)cc1 [Compound D11, 2-[(1Z)-5-Methoxy-2-methyl-1-[(4-phenoxyphenyl)methylidene]-1H-inden-3-yl]acetic acid]
inhibition at 10 µM [1]: ≥ 80%

CC1=C(CC(=O)O)c2cc(C(C)(C)C)ccc2/C1=C\c1ccc(Oc2ccc(F)cc2)cc1 [Compound D17, 2-[(1Z)-5-Tert-butyl-2-methyl-1-({4-[4-fluorophenoxy]phenyl}methylidene)-1H-inden-3-yl]acetic acid]
inhibition at 10 µM [1]: ≥ 80%

CC1=C(CC(=O)O)c2cc(F)ccc2/C1=C\c1cccc(Oc2ccccc2)c1 [Compound D18, (Z)-2-(5-Fluoro-2-methyl-1-(3-phenoxybenzylidene)-1H-inden-3-yl)acetic acid]
inhibition at 10 µM [1]: ≥ 80%

CC1=C(CC(=O)O)c2cc(F)ccc2/C1=C\c1cccc(Oc2ccc(C#N)cc2)c1 [Compound D24, 2-[(1Z)-5-Fluoro-2-methyl-1-({3-[4-cyanophenoxy]phenyl}methylidene)-1H-inden-3-yl]acetic acid]
inhibition at 10 µM [1]: ≥ 80%

CC1=C(CC(=O)O)c2cc(F)ccc2/C1=C\c1cccc(Oc2ccc(C(F)(F)F)cc2)c1 [Compound D26, 2-[(1Z)-5-Fluoro-2-methyl-1-({3-[4-trifluoromethylphenoxy]phenyl}-methylidene)-1H-inden-3-yl]acetic acid]
inhibition at 10 µM [1]: ≥ 80% | inhibition at 3.3 µM [2, 5]: 30 to 50% | inhibition at 10 µM [2, 6]: 30 to 50% | inhibition at 30 µM [2, 7]: ≥ 50% | inhibition at 3.3 µM [3, 5]: 30 to 50% | inhibition at 10 µM [3, 6]: ≥ 50% | inhibition at 30 µM [3, 7]: ≥ 50% | inhibition at 3.3 µM [4, 5]: ≥ 50% | inhibition at 10 µM [4, 6]: ≥ 50% | inhibition at 30 µM [4, 7]: ≥ 50% | inhibition at 3.3 µM (HepG2 (liver cancer); [5]): 30 to 50% | inhibition at 10 µM (HepG2 (liver cancer); [6]): ≥ 50% | inhibition at 30 µM (HepG2 (liver cancer); [7]): ≥ 50% | inhibition at 3.3 µM (SW480 (colon cancer); [5]): < 30% | inhibition at 10 µM (SW480 (colon cancer); [6]): < 30% | inhibition at 30 µM (SW480 (colon cancer); [7]): ≥ 50% | inhibition at 3.3 µM (HeLa (cervical cancer); [5]): 30 to 50% | inhibition at 10 µM (HeLa (cervical cancer); [6]): ≥ 50% | inhibition at 30 µM (HeLa (cervical cancer); [7]): ≥ 50%

COc1ccc2c(c1)/C(=C\c1ccc(Oc3ccccc3)cc1)C(C)=C2CC(=O)O [Compound D29, 2-[(1Z)-6-Methoxy-1-(4-(phenoxy)benzylidene)-2-methyl-1H-inden-3-yl]-acetic acid]
inhibition at 10 µM [1]: 50 to 80%

COc1ccc2c(c1)/C(=C\c1cccc(Oc3ccccc3)c1)C(C)=C2CC(=O)O [Compound D35, 2-[(1Z)-6-Methoxy-1-(3-(phenoxy)benzylidene)-2-methyl-1H-inden-3-yl]-acetic acid]
inhibition at 10 µM [1]: < 30%

CC1=C(CC(=O)O)c2cc(F)ccc2/C1=C\c1cccc(N(C)c2ccccc2)c1 [Compound D37, 2-[(1Z)-5-Fluoro-2-methyl-1-({3-[methyl(phenyl)amino]phenyl}methylidene)-1H-inden-3-yl]acetic acid]
inhibition at 10 µM [1]: ≥ 80%

CC1=C(CC(=O)O)c2cc(F)ccc2/C1=C\c1ccc(C2=CCCC2)cc1 [Compound D39, (Z)-2-(1-(4-(Cyclopent-1-en-1-yl)benzylidene)-5-fluoro-2-methyl-1H-inden-3-yl)acetic acid]
inhibition at 10 µM [1]: 50 to 80%

CC1=C(CC(=O)NO)c2cc(F)ccc2/C1=C\c1ccc(C2=CCCC2)cc1 [Compound D40, (Z)-2-(1-(4-(Cyclopent-1-en-1-yl)benzylidene)-5-fluoro-2-methyl-1H-inden-3-yl)-N-hydroxyacetamide]
inhibition at 10 µM [1]: 50 to 80%

CC1=C(CC(N)=O)c2cc(F)ccc2/C1=C\c1ccc(C(C)(C)C)cc1 [Compound D41, (Z)-2-(1-(4-(Tert-butyl)benZylidene)-5-fluoro-2-methyl-1H-inden-3-yl)acetamide]
inhibition at 10 µM [1]: ≥ 80%

CC1=C(CC(=O)O)c2cc(F)ccc2/C1=C/c1ccc(Oc2ccc(F)cc2)cc1 [Compound E2, 2-[(1E)-5-Fluoro-2-methyl-1-({4-[4-fluorophenoxy]phenyl}methylidene)-1H-inden-3-yl]acetic acid]
inhibition at 10 µM [1]: ≥ 80%

CC1=C(CC(=O)O)c2cc(F)ccc2/C1=C/c1ccc(Oc2ccccc2)cc1 [Compound E3, 2-[(1E)-5-Fluoro-2-methyl-1-[(4-phenoxyphenyl)methylidene]-1H-inden-3-yl]acetic acid]
inhibition at 10 µM [1]: ≥ 80%

CC1=C(CC(=O)NO)c2cc(F)ccc2/C1=C/c1ccc(C(C)(C)C)cc1 [Compound E6, (E)-2-(1-(4-(Tert-butyl)benzylidene)-5-fluoro-2-methyl-1H-inden-3-yl)-N-hydroxyacetamide]
inhibition at 10 µM [1]: 50 to 80%
